This is an account of results in patent publication US20100069345A1, “Lanthanide-porphyrin complexes as anti-tumor agents” (priority 2005, published 2010).

Assay [1] deals with human hepatocellular carcinoma cells (HepG2). The assay can be described thus: MTT cell viability assay, HepG2. In kind it is cell-based. The source says: (§1) Human cervical epitheloid carcinoma cells (HeLa), human hepatocellular carcinoma cells (HepG2 and Hep3B), human breast cancer cells (MCF-7), human coloadenocarcinoma cells (HCT-8), and normal human lung fibroblast cells (CCD-19Lu) were purchased from American Type Culture Collection (ATCC) Rockville, Md., USA. The human hepatocellular cancinoma cells QGY-7703, and the multi-drug resistant cell line QGY-TR50 derived from QGY-7703, were generously provided by Prof. Yong Xie (The Hong Kong University of Science and Technology, Hong Kong PRC). QGY-TR50 cells were isolated and cultured as described (J. Zhou, S. C. Cheng, D. Luo, Y. Xie Biochem. Biophys. Res. Commun. 2001, 280, 1237-1242). Human nasopharyngeal carcinoma cells (SUNE1 and its cisplatin-resistant variant—CNE2) were derived from poorly differentiated NPC in Chinese patients and were generously provided by Dr. S. W. Tsao (The University of Hong Kong, Hong Kong PRC). Cell culture flasks and 96-well microtitre plates were from Nalge Nunc Int. Culture medium, other medium constituents and phosphate buffer saline (PBS) were obtained by Gibco BRL Rockville, Md., USA. Cell Proliferation kit I (MTT) was purchased from Roche. Mannheim, Germany.
A general note: Tetrazolium assays rely on reduction of a dye to a coloured formazan, in cell work by metabolically active cells.

Assay [2] has as its system multi-drug resistant cell line QGY-TR50. The assay can be described thus: MTT cell viability assay, QGY-TR50. In kind it is cell-based, human.
Description: as §1

In assay [3] the test system is human hepatocellular carcinoma cells (Hep3B). The assay can be described thus: MTT cell viability assay, Hep3B. The following applies: 37° C., 48 h, mean ± SD. It counts as cell-based.
Description: as §1

In assay [4] the test system is HeLa cells. The assay can be described thus: FACS cell cycle analysis with PI staining. In kind it is cell-based, human. The following applies: 2 μM. The method, then: Instrumentation. All absorption spectra were recorded on a Perkin-Elmer Lambda 900 and Perkin-Elmer Fusion α-FP. Positive ion FAB mass spectra were recorded on a Finnigan MAT95 mass spectrometer. ^1HNMR spectra were recorded on Brucker DPX-300 or DPX-400 NMR spectrometers. Flow cytometric analysis was performed with a Coulter EPICS flow cytometer (Coulter, Miami, Fla.) equipped with 480 long, 525 band and 625 long pass mirrors. Samples were excited by 15 mW air-cool argon convergent laser at 488 nm. Fluorescence signal were manipulated with Coulter Elite 4.0 software (Coulter) and were analyzed by Winlist 1.04 and Modfit 5011 software (verity Software House, Topsham, Me.).
Fluorescence-Activated Cell Sortings (FACS). Cells in different phases of the cell cycle can be differentiated by the DNA content, which can be distinguished by FACS after staining the cells with propidium iodide (PI). Resting cells are said to be in the G0 phase of the cell cycle. Once the cell is instructed to divide, it enters the active phase of the cell cycle, which is consisted of G1, S, G2 and M phase. Treatment of cancer cells with cytotoxic agents may induce cell cycle arrest at a particular phase of the cell cycle. Flow cytometry with PI staining was performed in HeLa cells treated with complex 1 (2 μM) for 0, 6 h, 12 h, 18 h, 24 h, 36 h and 48 h. […]

Assay [5] has as its system HeLa cells. The assay can be described thus: Transmission electron microscopy of autophagic cells. In kind it is cell-based, human. Conditions: 1 μM, 2 h. As to the method: Transmission Electron Microscopy. HeLa cells (12×10^4) were seeded on 60 mm plate. Cells were treated with 1 (1 μM) for 2 h, respectively. Cells were then trypsinized, washed twice with PBS and fixed with ice-cold glutaraldehyde (2.5% in 0.1 M cacodylate buffer, pH 7.4) for 30 min. After primary fixation, cells were washed with cacodylate buffer, post-fixed with 1% osmium tetraoxide for 30 min. Osmium tetraoxide was removed and the cell pellet was washed with cacodylate buffer. Pre-warmed gelatin was added to the cell pellet and immediately centrifuged at 2500 rpm for 5 min. The gelatin was dehydrated by immersing in 30% EtOH, 50% EtOH, 70% EtOH once, and in 90% EtOH twice for 5 min and finally in absolutely EtOH for 10 min for three times. The dehydrated sample was washed with propylene oxide twice for 5 min and then immersed in propylene oxide:resin (1:1) for overnight. The sample was immersed in pure resin for 30 min before embedded in Polybed. Specimens were examined using 208S Philips transmission electron microscopy.
Cells treated with 1 were subjected to transmission electron microscopic analysis.

The test system of another assay is LC3. The assay can be described thus: Subcellular distribution of GFP-LC3. In kind it is cell-based, human. The following applies: HeLa transfected with GFP-LC3, 1 μM, 1-4 hours. The method, then:
Subcellular Distribution of LC3. HeLa cells were transiently transfected with a plasmid expressing green fluorescent protein-tagged LC3 (GFP-LC3) using GeneJuice (Novagen, USA). After overnight incubation, HeLa cells were treated 1 (1 μM) for 1, 2, 3, and 4 hours respectively. Green fluorescence of GFP-LC3 was examined under the Olympus IX71 microscope (Melville, N.Y.). Images were captured with CCD digital camera RT COLOR, Spot (Diagnostic Instruments, Inc., Melville, N.Y.).
The redistribution of microtubule-associated protein 1 light chain 3 (LC3) was also examined. LC3 is a maker of autophagosomes in mammalian cells which the localization changes from a diffuse cytosolic pattern to a punctuate pattern representing its recruitment to the autophagosomal membrane during the induction of autophagy. HeLa cells were transfected with plasmid encoded a fusion protein of GFP and LC3 (GFP-LC3), so that the cellular trafficking of LC3 can be directly visualized by live fluorescence microscopy.

The mark [6] stands for this setting: IC50 of cisplatin divided by IC50 of complex.

On to [Yb2(OEP)2](μ-OH)2 [Complex 1], for which, in assay [1] (setting [6]), the “IC50 ratio cisplatin/complex, HepG2” value was determined as 22.7. The IC50 – broadly, the concentration needed to halve the response being measured – in assay [1] (MTT, 37° C., 48 h, mean ± SD) worked out at 0.21 ± 0.01 µM; in assay [2] (MTT, 37° C., 48 h, mean ± SD), 0.54 µM; in assay [3], 0.78 ± 0.06 µM. Besides, the “IC50 ratio cisplatin/complex, QGY-TR50” value in assay [2] (setting [6]) amounted to 60.3. In the assay on HeLa cells [4] (0-48 h, PI staining), the “change in proportion of cells in G0-G1, G2-M and S phase” value is on record as “no observable change”. In the assay with HeLa cells [4] (48 h), the “cells showing DNA fragmentation” value is “more than 60%”. Also, the “autophagic vacuoles by transmission electron microscopy” value with HeLa cells [5] is listed as “vesicular structures reminiscence of autophagic vacuoles”. Also, the “redistribution of GFP-LC3” value in the assay on LC3 is reported as “time-dependent increase in punctuated green fluorescence”.
